In ChEMBL document CHEMBL4392848, “Proline-based hydroxamates targeting the zinc-dependent deacetylase LpxC: Synthesis, antibacterial properties, and docking studies” (Bioorg Med Chem, 2019):
pIC50, pKi: −log10 of the molar value. In brackets after ≈: the same amount, converted by molar mass.

What was measured:
Proteus mirabilis = assay: Antibacterial activity against Proteus mirabilis assessed as diameter of inhibition zone measured after 24 hrs by agar disc diffusion method; format: functional; also: test concentration or dose not given here
Klebsiella pneumoniae = assay: Antibacterial activity against Klebsiella pneumoniae assessed as diameter of inhibition zone measured after 24 hrs by agar disc diffusion method; format: functional; also: test concentration or dose not given here
Escherichia coli [1] = assay: Antibacterial activity against Escherichia coli BL21(DE3) measured after 20 hrs by microdilution method; format: functional
Pseudomonas aeruginosa = assay: Antibacterial activity against Pseudomonas aeruginosa assessed as diameter of inhibition zone measured after 24 hrs by agar disc diffusion method; format: functional; also: test concentration or dose not given here
Citrobacter freundii = assay: Antibacterial activity against Citrobacter freundii assessed as diameter of inhibition zone measured after 24 hrs by agar disc diffusion method; format: functional; also: test concentration or dose not given here
Escherichia coli [2] = assay: Antibacterial activity against Escherichia coli D22 measured after 20 hrs by microdilution method; format: functional; details: D22, 20 h
Proteus vulgaris = assay: Antibacterial activity against Proteus vulgaris assessed as diameter of inhibition zone measured after 24 hrs by agar disc diffusion method; format: functional; also: test concentration or dose not given here
Escherichia coli [3] = assay: Antibacterial activity against Escherichia coli BL21(DE3) assessed as diameter of inhibition zone measured after overnight incubation by agar disc diffusion method; format: functional; also: test concentration or dose not given here
Klebsiella oxytoca = assay: Antibacterial activity against Klebsiella oxytoca assessed as diameter of inhibition zone measured after 24 hrs by agar disc diffusion method; format: functional; also: test concentration or dose not given here
Klebsiella aerogenes = assay: Antibacterial activity against Enterobacter aerogenes assessed as diameter of inhibition zone measured after 24 hrs by agar disc diffusion method; format: functional; also: test concentration or dose not given here
Enterobacter cloacae = assay: Antibacterial activity against Enterobacter cloacae assessed as diameter of inhibition zone measured after 24 hrs by agar disc diffusion method; format: functional; also: test concentration or dose not given here
Escherichia coli [4] = assay: Antibacterial activity against Escherichia coli D22 assessed as diameter of inhibition zone measured after overnight incubation by agar disc diffusion method; format: functional; also: test concentration or dose not given here
[5] = Inhibition of Escherichia coli LpxC C63A mutant using UDP-3-O-[(R)-3-hydroxymyristoyl]-N-acetylglucosamine as substrate measured after 30 mins by fluorescence based microplate assay

SMILES | diameter of the inhibition zone (DIZ) (Proteus mirabilis) | diameter of the inhibition zone (DIZ) (Klebsiella pneumoniae) | MIC (Escherichia coli [1]) | diameter of the inhibition zone (DIZ) (Pseudomonas aeruginosa) | diameter of the inhibition zone (DIZ) (Citrobacter freundii) | MIC (Escherichia coli [2]) | diameter of the inhibition zone (DIZ) (Proteus vulgaris) | diameter of the inhibition zone (DIZ) (Escherichia coli [3]) | diameter of the inhibition zone (DIZ) (Klebsiella oxytoca) | diameter of the inhibition zone (DIZ) (Klebsiella aerogenes) | diameter of the inhibition zone (DIZ) (Enterobacter cloacae) | diameter of the inhibition zone (DIZ) (Escherichia coli [4]) | pIC50 [5] | pKi [5]
N[C@H]1C[C@@H](C(=O)NO)N(C(=O)c2ccc(C#Cc3ccccc3)cc2)C1 | 8 mm | 7 mm | > 256 µM | 7 mm | 7 mm | 128 µM (≈ 44.7 µg/mL) | <6 mm | 7.5 mm | 7 mm | 7 mm | 7 mm | 12.3 mm | – | –
N[C@H]1C[C@@H](C(=O)NO)N(C(=O)c2ccc(C#Cc3ccc(CN4CCOCC4)cc3)cc2)C1 | 7 mm | 9 mm | 256 µM (≈ 115 µg/mL) | 10 mm | 8 mm | 64 µM (≈ 28.7 µg/mL) | <6 mm | 7.8 mm | 13 mm | 11 mm | <6 mm | 20 mm | – | –
O=C(NO)[C@@H]1C[C@@H](O)CN1C(=O)c1ccc(C#Cc2ccccc2)cc1 | – | – | > 256 µM | – | – | 128 µM (≈ 44.8 µg/mL) | – | <6 mm | – | – | – | 14 mm | 3.99 | 4.85
O=C(NO)[C@H]1O[C@@H](c2ccc(C#Cc3ccc(CN4CCOCC4)cc3)cc2)[C@@H](O)[C@H]1O | – | – | > 256 µM | – | – | 16 µM (≈ 7.02 µg/mL) | – | <6 mm | – | – | – | 13.2 mm | < 3.70 | < 4.56
O=C(NO)[C@@H]1C[C@H](O)CN1C(=O)c1ccc(C#Cc2ccccc2)cc1 | 7 mm | <6 mm | > 256 µM | <6 mm | 7 mm | 64 µM (≈ 22.4 µg/mL) | 7 mm | <6 mm | 7 mm | <6 mm | <6 mm | 14.3 mm | < 3.70 | < 4.56
COc1ccc(C#Cc2ccc(C(=O)N3C[C@@H](O)C[C@H]3C(=O)NO)cc2)cc1 | <6 mm | <6 mm | > 256 µM | <6 mm | 8 mm | 128 µM (≈ 48.7 µg/mL) | 9 mm | <6 mm | 7 mm | <6 mm | 8 mm | <6 mm | – | –
O=C(NO)[C@@H]1C[C@@H](O)CN1C(=O)c1ccc(C#Cc2ccc(F)cc2)cc1 | – | – | > 256 µM | – | – | 256 µM (≈ 94.3 µg/mL) | – | <6 mm | – | – | – | 10.7 mm | < 3.70 | < 4.56
COc1ccc(C#Cc2ccc(C(=O)N3C[C@H](O)C[C@H]3C(=O)NO)cc2)cc1 | 7 mm | <6 mm | > 256 µM | <6 mm | 7 mm | 64 µM (≈ 24.3 µg/mL) | 8 mm | <6 mm | 7 mm | <6 mm | <6 mm | 9.7 mm | – | –
O=C(NO)[C@@H]1C[C@H](F)CN1Cc1ccc(C#Cc2ccccc2)cc1 | – | – | > 256 µM | – | – | 128 µM (≈ 43.3 µg/mL) | – | <6 mm | – | – | – | 10.7 mm | < 3.70 | < 4.56
Nc1ccc(C#Cc2ccc(C(=O)N3C[C@@H](O)C[C@H]3C(=O)NO)cc2)cc1 | 8 mm | <6 mm | > 256 µM | <6 mm | <6 mm | 128 µM (≈ 46.8 µg/mL) | <6 mm | <6 mm | 8 mm | <6 mm | <6 mm | 13 mm | – | –
Nc1ccc(C#Cc2ccc(C(=O)N3CCC[C@H]3C(=O)NO)cc2)cc1 | <6 mm | <6 mm | > 256 µM | <6 mm | 7 mm | 128 µM (≈ 44.7 µg/mL) | <6 mm | 7.5 mm | 7 mm | <6 mm | <6 mm | 14.3 mm | – | –
O=C(NO)[C@@H]1C[C@H](F)CN1C(=O)c1ccc(C#Cc2ccccc2)cc1 | – | – | > 256 µM | – | – | 128 µM (≈ 45.1 µg/mL) | – | <6 mm | – | – | – | 13.3 mm | 4.18 | 5.04
Nc1ccc(C#Cc2ccc(C(=O)N3C[C@H](O)C[C@H]3C(=O)NO)cc2)cc1 | 7 mm | <6 mm | > 256 µM | <6 mm | <6 mm | 128 µM (≈ 46.8 µg/mL) | <6 mm | <6 mm | 7 mm | <6 mm | <6 mm | 12.3 mm | – | –
CN(C)c1ccc(C#Cc2ccc(C(=O)N3C[C@H](O)C[C@H]3C(=O)NO)cc2)cc1 | 8 mm | 7 mm | 256 µM (≈ 101 µg/mL) | <6 mm | 8 mm | 32 µM (≈ 12.6 µg/mL) | <6 mm | <6 mm | 8 mm | 10 mm | <6 mm | 14 mm | – | –
CC1(C)O[C@@H]2[C@H](O1)[C@H](c1ccc(C#Cc3ccc(CN4CCOCC4)cc3)cc1)O[C@@H]2C(=O)NO | – | – | > 256 µM | – | – | 128 µM (≈ 61.3 µg/mL) | – | <6 mm | – | – | – | 14.7 mm | < 3.70 | < 4.56
O=C(NO)[C@@H]1O[C@@H](c2ccc(C#Cc3ccc(CN4CCOCC4)cc3)cc2)[C@@H](O)[C@H]1O | – | – | > 256 µM | – | – | 8 µM (≈ 3.51 µg/mL) | – | <6 mm | – | – | – | 22.1 mm | 5.00 | 5.85
O=C(NO)[C@@H]1C[C@H](O)[C@H](c2ccc(C#Cc3ccc(CN4CCOCC4)cc3)cc2)O1 | – | – | > 256 µM | – | – | 16 µM (≈ 6.76 µg/mL) | – | <6 mm | – | – | – | 15.3 mm | 4.06 | 4.92
